In the supplement of paper PMC10627819:

Experiments:
Experiment in all cases: Bliss interaction score (quartile over a dose matrix) (fitness difference); higher = more antagonism (negative = synergy)
[1] = system: B. subtilis 168; details: main component drawn
Procedure, shortened: (§1)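 At entry into stationary phase, OD595 was recorded and divided by the robust mean of the no-drug wells on that plate, with any value above 1 set to 1. This gives the fitness measure used throughout. Single-drug fitness was inferred from combination data, and the Bliss score, observed minus product-expected fitness, is shown as quartiles across technical, biological and donor/recipient replicates.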

[2] = system: S. aureus DSM 20231
Procedure, shortened: as §1

[3] = system: S. aureus Newman; details: main component drawn
Procedure, shortened: as §1

[4] = system: S. pneumoniae D39V; details: main component drawn
Procedure, shortened: as §1
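Also: first quartile when negative (synergy) and third quartile when positive (antagonism).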

Structure (SMILES)	Bliss interaction score [2]	other results
CC[C@H](C)[C@H](N)C1=N[C@H](C(=O)N[C@@H](CC(C)C)C(=O)N[C@H](CCC(=O)O)C(=O)N[C@H](C(=O)N[C@H]2CCCCNC(=O)[C@H](CC(N)=O)NC(=O)[C@@H](CC(=O)O)NC(=O)[C@H](Cc3cnc[nH]3)NC(=O)[C@@H](Cc3ccccc3)NC(=O)[C@H]([C@@H](C)CC)NC(=O)[C@@H](CCCN)NC2=O)[C@@H](C)CC)CS1 [Bacitracin] + C1=CC(=CC(=C1)Cl)NN=C(C#N)C#N [CCCP]	–	Bliss interaction score [1]: 0.0608; Bliss interaction score ([2]; main component drawn): -0.0168; Bliss interaction score [3]: 0.194; Bliss interaction score [4]: 0.0638
CC[C@H](C)[C@H](N)C1=N[C@H](C(=O)N[C@@H](CC(C)C)C(=O)N[C@H](CCC(=O)O)C(=O)N[C@H](C(=O)N[C@H]2CCCCNC(=O)[C@H](CC(N)=O)NC(=O)[C@@H](CC(=O)O)NC(=O)[C@H](Cc3cnc[nH]3)NC(=O)[C@@H](Cc3ccccc3)NC(=O)[C@H]([C@@H](C)CC)NC(=O)[C@@H](CCCN)NC2=O)[C@@H](C)CC)CS1 [Bacitracin] + CC1(C)S[C@@H]2[C@H](NC(=O)Cc3ccccc3)C(=O)N2[C@H]1C(=O)O [PenicillinG]	–	Bliss interaction score [1]: -0.164; Bliss interaction score ([2]; main component drawn): 0.0263; Bliss interaction score [3]: 0.0689; Bliss interaction score [4]: -0.0799
CC[C@H](C)[C@H](N)C1=N[C@H](C(=O)N[C@@H](CC(C)C)C(=O)N[C@H](CCC(=O)O)C(=O)N[C@H](C(=O)N[C@H]2CCCCNC(=O)[C@H](CC(N)=O)NC(=O)[C@@H](CC(=O)O)NC(=O)[C@H](Cc3cnc[nH]3)NC(=O)[C@@H](Cc3ccccc3)NC(=O)[C@H]([C@@H](C)CC)NC(=O)[C@@H](CCCN)NC2=O)[C@@H](C)CC)CS1 [Bacitracin] + CC(=O)O[C@H]1C[C@@]2(C)[C@@H](C[C@@H](O)[C@H]3[C@@]4(C)CC[C@@H](O)[C@@H](C)[C@@H]4CC[C@@]32C)/C1=C(\CCC=C(C)C)C(=O)O [Fusidic acid]	–	Bliss interaction score [1]: -0.166; Bliss interaction score ([2]; main component drawn): 0.012; Bliss interaction score [3]: -0.0273; Bliss interaction score [4]: -0.0749
CO[C@@]12[C@H](COC(N)=O)C3=C(C(=O)C(C)=C(N)C3=O)N1C[C@@H]1N[C@@H]12 [MitomycinC] + COc1ccc(CCN(C)CCCC(C#N)(c2ccc(OC)c(OC)c2)C(C)C)cc1OC [Verapamil]	0.195	–
CO[C@@]12[C@H](COC(N)=O)C3=C(C(=O)C(C)=C(N)C3=O)N1C[C@@H]1N[C@@H]12 [MitomycinC] + Cc1c(Cl)cccc1Nc1ccccc1C(=O)O [Tolfenamic]	-0.273	–
CC(C)(O)c1ccccc1CC[C@@H](SCC1(CC(=O)O)CC1)c1cccc(/C=C/c2ccc3ccc(Cl)cc3n2)c1 [Montelukast] + CCC(C)C1C(=O)NC(=C)C(=O)NC(C(=O)NC(CSCC(C(=O)N1)NC(=O)/C(=C/C)/NC(=O)C(C(C)CC)N)C(=O)NC2C(SCC(NC(=O)CNC(=O)C3CCCN3C2=O)C(=O)NC(CCCCN)C(=O)NC4C(SCC(NC(=O)CNC(=O)C(NC(=O)C(NC(=O)C(NC(=O)CNC4=O)C)CC(C)C)CCSC)C(=O)NC(CC(=O)N)C(=O)NC(CCSC)C(=O)NC(CCCCN)C(=O)NC5C(SCC6C(=O)NC(C(=O)NC(CSC(C(C(=O)N6)NC(=O)C(NC5=O)C)C)C(=O)NC(CO)C(=O)NC(C(C)CC)C(=O)NC(CC7=CN=CN7)C(=O)NC(C(C)C)C(=O)NC(=C)C(=O)NC(CCCCN)C(=O)O)CC8=CN=CN8)C)C)C)CC(C)C [Nisin]	–	Bliss interaction score ([2]; main component drawn): 0.297
CC(C)(O)c1ccccc1CC[C@@H](SCC1(CC(=O)O)CC1)c1cccc(/C=C/c2ccc3ccc(Cl)cc3n2)c1 [Montelukast] + CN[C@@H]1[C@H](O[C@H]2[C@H](O[C@H]3[C@H](O)[C@@H](O)[C@H](N=C(N)N)[C@@H](O)[C@@H]3N=C(N)N)O[C@@H](C)[C@]2(O)C=O)O[C@@H](CO)[C@H](O)[C@H]1O [Streptomycin]	-0.394	–
CC(C)(O)c1ccccc1CC[C@@H](SCC1(CC(=O)O)CC1)c1cccc(/C=C/c2ccc3ccc(Cl)cc3n2)c1 [Montelukast] + CN[C@H](CC(C)C)C(=O)N[C@H]1C(=O)N[C@@H](CC(N)=O)C(=O)N[C@H]2C(=O)N[C@H]3C(=O)N[C@H](C(=O)N[C@H](C(=O)O)c4cc(O)cc(O)c4-c4cc3ccc4O)[C@H](O[C@H]3C[C@](C)(N)[C@@H](O)[C@H](C)O3)c3ccc(c(Cl)c3)Oc3cc2cc(c3O[C@@H]2O[C@H](CO)[C@@H](O)[C@H](O)[C@H]2O[C@H]2C[C@](C)(NCc3ccc(-c4ccc(Cl)cc4)cc3)[C@@H](O)[C@H](C)O2)Oc2ccc(cc2Cl)[C@H]1O [Oritavancin]	0.247	–
CC(C)(O)c1ccccc1CC[C@@H](SCC1(CC(=O)O)CC1)c1cccc(/C=C/c2ccc3ccc(Cl)cc3n2)c1 [Montelukast] + COc1cc(Cc2cnc(N)nc2N)cc(OC)c1OC [Trimethoprim]	-0.299	–
CC(C)(O)c1ccccc1CC[C@@H](SCC1(CC(=O)O)CC1)c1cccc(/C=C/c2ccc3ccc(Cl)cc3n2)c1 [Montelukast] + Cn1nnc(-c2ccc(-c3ccc(N4C[C@H](CO)OC4=O)cc3F)cn2)n1 [Tedizolid]	-0.384	–
CO[C@@H]1[C@@H](OC(N)=O)[C@@H](O)[C@H](Oc2ccc3c(O)c(NC(=O)c4ccc(O)c(CC=C(C)C)c4)c(=O)oc3c2C)OC1(C)C [Novobiocin] + CCCSc1nc(N[C@@H]2C[C@H]2c2ccc(F)c(F)c2)c2nnn([C@@H]3C[C@H](OCCO)[C@@H](O)[C@H]3O)c2n1 [Ticagrelor]	0.177	–
CO[C@H]1/C=C/O[C@@]2(C)Oc3c(C)c(O)c4c(O)c(c(/C=N/N5CCN(C)CC5)c(O)c4c3C2=O)NC(=O)/C(C)=C\C=C\[C@H](C)[C@H](O)[C@@H](C)[C@@H](O)[C@@H](C)[C@H](OC(C)=O)[C@@H]1C [Rifampicin] + CCCSc1nc(N[C@@H]2C[C@H]2c2ccc(F)c(F)c2)c2nnn([C@@H]3C[C@H](OCCO)[C@@H](O)[C@H]3O)c2n1 [Ticagrelor]	0.245	–
CN[C@@H]1[C@H](O)[C@H](NC)[C@H]2O[C@@]3(O)C(=O)C[C@@H](C)O[C@H]3O[C@@H]2[C@H]1O [Spectinomycin] + Cc1c(Cl)cccc1Nc1ccccc1C(=O)O [Tolfenamic]	0.145	–
CN[C@@H]1[C@H](O[C@H]2[C@H](O[C@H]3[C@H](O)[C@@H](O)[C@H](N=C(N)N)[C@@H](O)[C@@H]3N=C(N)N)O[C@@H](C)[C@]2(O)C=O)O[C@@H](CO)[C@H](O)[C@H]1O [Streptomycin] + CC/C(=C(\c1ccccc1)c1ccc(OCCN(C)C)cc1)c1ccccc1 [Tamoxifene]	0.166	–
CN[C@@H]1[C@H](O[C@H]2[C@H](O[C@H]3[C@H](O)[C@@H](O)[C@H](N=C(N)N)[C@@H](O)[C@@H]3N=C(N)N)O[C@@H](C)[C@]2(O)C=O)O[C@@H](CO)[C@H](O)[C@H]1O [Streptomycin] + CCCSc1nc(N[C@@H]2C[C@H]2c2ccc(F)c(F)c2)c2nnn([C@@H]3C[C@H](OCCO)[C@@H](O)[C@H]3O)c2n1 [Ticagrelor]	-0.259	–
CN[C@@H]1[C@H](O[C@H]2[C@H](O[C@H]3[C@H](O)[C@@H](O)[C@H](N=C(N)N)[C@@H](O)[C@@H]3N=C(N)N)O[C@@H](C)[C@]2(O)C=O)O[C@@H](CO)[C@H](O)[C@H]1O [Streptomycin] + CCCc1nc2c(C)cc(-c3nc4ccccc4n3C)cc2n1Cc1ccc(-c2ccccc2C(=O)O)cc1 [Telmisartan]	0.123	–
CN[C@@H]1[C@H](O[C@H]2[C@H](O[C@H]3[C@H](O)[C@@H](O)[C@H](N=C(N)N)[C@@H](O)[C@@H]3N=C(N)N)O[C@@H](C)[C@]2(O)C=O)O[C@@H](CO)[C@H](O)[C@H]1O [Streptomycin] + Cc1ccc(C(C)C)c(O)c1 [Thymol]	-0.425	–
